Legend:
[1] = test system: latent HIV promoter (LTR-Tat-IRES-GFP vector) in Jurkat-derived cells; assay: Reactivation of latent LTR-Tat-IRES-GFP vector in Jurkat cells/clones, GFP by flow cytometry; format: cell-based; conditions: for ability to reactivate latent HIV expression (GFP-positive cells and mean fluorescence intensity): clones 82, A1, A7, A10, 10 nM TPA, 10 ng/ml TNF-α, 5 μg/ml PHA, 5 μg/ml anti-CD3, 400 nM TSA, 5 μM aza-dC 48 h
Description: To obtain a random library of clones containing the vector LTR-Tat-IRES-GFP integrated, Jurkat cells were infected at an MOI (multiplicity of infection) of 0.1 followed by serial dilution and plating in 96-well plates. Individual clones obtained after 3 weeks were analyzed by flow cytometry for GFP expression. For the purification of latently infected cells, Jurkat cells were infected with the LTR-Tat-IRES-GFP viral stock at an MOI of 0.1 and kept in culture for at least 96 h. GFP-negative (GFP^−) and GFP-positive (GFP^+) cells were separated by fluorescence activated cell sorting (FACS) and further cultured. One week later, GFP^− cells were incubated with 10 nM TPA or 10 ng/ml TNF-α for 17 h.
Jurkat cells were grown in RPMI 1640 medium (Mediatech Cellgro, Herndon, Va.) supplemented with 10% fetal bovine serum, 100 U/ml of penicillin, 100 μg/ml of streptomycin, and 2 mM L-glutamine at 37° C. under a 95% air/5% CO2 atmosphere. Peripheral blood mononuclear cells (PBMCs) were cultivated in the same medium supplemented with 100 U/ml human interleukin (hIL)-2 and were phytohemagglutinin (PHA)-stimulated (5 μg/ml) once every two weeks. 293T cells were grown under the same conditions as Jurkat cells in Dulbecco's modification of Eagle's medium (Mediatech Cellgro, Herndon, Va.). 293T cells were routinely transfected with calcium phosphate. Jurkat cells (10^7 cells/0.4 ml serum-free medium) were electroporated in 0.4-cm gap cuvettes at 250 V and […] (Gene Pulser II, Biorad, Hercules, Calif.). Plasmid DNA for transfections was purified with the Qiagen Plasmid Maxi kit, followed by phenol extraction and ethanol precipitation. To test the HIV promoter inducibility, Jurkat-derived clones were incubated for 17 h with 10 nM tetradecanoyl phorbol acetate (TPA), 10 ng/ml TNF-α, 5 μg/ml PHA, 1 μM ionomycin, 5 μg/ml anti-CD3 antibody, 400 nM Trichostatin A (TSA). Incubations with 5 μM aza-dC lasted for 48 h.
(§1) Cells were washed in PBS and resuspended in PBS containing 1% paraformaldehyde. GFP fluorescence was measured with a FACScalibur machine (Becton Dickinson, San Jose, Calif.). A two narameter analysis to distinguish GFP-derived fluorescence from background fluorescence was used: CFP was measured in FL1 and cellular autofluorescence was monitored in FL2. Electronic compensation was applied during analysis. Analysis was gated on live cells according to forward and side scatter. A gate (R2) containing GFP-positive cells was drawn compared to an uninfected control, and the data shown refer to the percentage of cells in R2 or mean fluorescence intensity (MFI) of those cells. Results shown throughout the manuscript are representative three independent experiments, except when libraries of clones were analyzed. Cell sorting was carried out with a FACSVantage (Becton Dickinson, San Jose, Calif.).

[2] = test system: latent full-length HIV provirus (HIV-R7/E-/GFP) in Jurkat clones; assay: Western blotting of HIV-specific proteins in latent HIV-R7/E-/GFP clones; format: cell-based; conditions: several clones; particularly gag p55 precursor
Text: Levels of viral mRNA after activation were similar to those measured after a productive HIV infection (compare clones F11 and G10 with NL4-3, FIG. 1C).

[3] = test system: latent full-length HIV provirus (HIV-R7/E-/GFP) in Jurkat clones; assay: HIV-specific p24 in culture supernatants of latent HIV-R7/E-/GFP clones; format: cell-based; conditions: culture supernatant; for p24 (pg/ml): + TNF-α
Text: When the culture supernatants of the same clones were examined for HIV-specific p24 expression, no or low picogram amounts could be detected under basal conditions (Table I).

[4] = test system: HIV transcription in latent cell lines; assay: HIV-specific mRNA measurement by TaqMan PCR in latent cell lines; format: cell-based; conditions: clone H2; +TNF-α
Description: RNA was isolated using TRIzol (Invitrogen) followed by digestion with RQ1 DNase (Promega). First strand cDNA was synthesized using Superscript II (Invitrogen). Taqman PCR was performed on an ABIprism 7700 detector using the following primer/probe set: primer 1: 5′-[…]-3′ (SEQ ID NO:21); primer 2: 5′-[…]-3′ (SEQ ID NO:22); probe 5′-CTGGTAACTAGAGATCCC-3′ (SEQ LD NO:23). The GAPDH primer/probe set was purchased from Applied Biosystems.
FIG. 1A-C. Enrichment and purification of HIV-latently infected cells by FACS. (A) A schematic representation of our enrichment protocol is shown. See text for details. The percentage of GFP-positive cells obtained after infection (4%) or after TNF-α treatment of GFP-cells (0.06%) is shown. Similar data were obtained with TPA. (B) Clonal cell lines isolated using the procedure described above were analyzed for CFP expression under basal and stimulated conditions (24 hr treatment with TNF-α). (C) mRNA levels were measured for HIV and for GAPDH using TaqMan PCR in untreated and TNF-α-treated cell lines. Results are expressed as a percentage of mRNA levels measured in Jurkat cells acutely infected with HIVNL4-3 (day 6 post-infection). Clone A72 is infected with an LTR-CFP construct (Jordan et al. (2001, supra), clone H2 is infected with the LTR-Tat-IRS-GFP vector while clones F11 and G10 are infected with HIV-R7/E^−/GFP.

[5] = test system: latent full-length HIV provirus (HIV-R7/E-/GFP) in Jurkat cells; assay: GFP expression in Jurkat cells/clones latently infected with full-length HIV-R7/E-/GFP, flow cytometry; format: cell-based; conditions: for GFP Signal (MFI) / GFP-Positive (%): + TNF-α
Description: as §1
The HIV molecular clone (HIV-R7/E^−1/GFP) was constructed by introducing a frameshift mutation in the env gene (by filling-in NdeI site with T4 polymerase) in the backbone of HIV-R7/3/GCF. Bieniasz and Cullen (2000) J. Virol. 74:9868-9877.
To confirm that HIV Latency can be established in the context of a full length provirus, we used a recombinant HIV molecular clone containing the GFP open reading frame in place of the Nef gene (Bieniasz and Cullen (2000) J. Virol. 74:9868-9877) (HIV-R7/E^−/GFP) (FIG. 5A). To restrict our analysis to a single infection cycle, the env gene was suppressed by introduction of a frameshift mutation. […]. We infected a culture of the lymphocytic cell line Jurkat with viral particles containing this HIV genome and used differential fluorescence-activated cell sorting based on GFP expression to isolate GFP-negative cells by FACS 4 days after infection (FIG. 5B). Based on our previous experiments, we predicted that this population harbored both uninfected cells and cells with transcriptionally silenced proviruses. To activate HIV expression, we treated this population with TNF-α and observed that a small fraction of the cell population (1.9%) became positive. These activated cells were purified by FACS based on GFP expression levels (FIG. 5B). These cells were both grown as a group and individually sorted for further characterization.
FIG. 5. Establishment of latently infected cell lines with a full-length HIV provirus. (A) genome organization of a molecular clone of HIV encoding GFP and containing a frameshift mutation in env. (B) Schematic representation of protocol for enrichment of latently-infected cells after infection of Jurkat cells with HIV-R7/E^−/GFP) (see text for detail). (C) Clonal cell lines isolated using the procedure described above were analyzed for GFP expression under basal and stimulated conditions (24 hr treatment with TNF-α).

[6] = test system: latent HIV-based retroviral vector in cell line; assay: Screen of small molecule library on cell line containing a latent HIV-based retroviral vector, GFP expression; conditions: different concentrations; FIG. 7
Text: We screened a library of 6,000 small molecules (library purchased from Chembridge, San Diego) using one of the cell lines containing a latent HIV-based retroviral vector. Viral expression was monitored by GFP expression, as described above. […] The results of a typical induction experiment in which we measured CFP expression in response to different concentrations of the two small molecules (Hit 1 and Hit2) are shown in FIG. 7. The structures of three representative active agents are shown below.

tetradecanoyl phorbol acetate [TPA]
GFP expression of individual latent clones after treatment ([1]; clonal cell lines 4 weeks after isolation): all clones were activated | ability to reactivate latent HIV expression (GFP-positive cells and mean fluorescence intensity) [1]: strongest inducer tested

tumor necrosis factor alpha [TNF-α]
HIV protein expression by western blotting [2]: dramatic increase in HIV protein expression | p24 (pg/ml) ([3]; Clone 6.3): 10,100 ± 4,573 pg/ml | p24 (pg/ml) ([3]; Clone 8.4): 32,967 ± 10,537 pg/ml | p24 (pg/ml) ([3]; Clone 9.2): 41,067 ± 9,100 pg/ml | p24 (pg/ml) ([3]; Clone 10.6): 85,500 ± 5,981 pg/ml | p24 (pg/ml) ([3]; Clone 15.4): 6,066 ± 1,960 pg/ml | increase in p24 measurement versus basal conditions ([3]; several representative clones): greater than a thousand-fold increase | HIV mRNA levels, activated versus basal conditions [4]: activation of HIV transcription | GFP Signal (MFI) ([5]; Clone 6.3): 135 ± 43 MFI | GFP-Positive (%) ([5]; Clone 6.3): 27 ± 9% | GFP Signal (MFI) ([5]; Clone 8.4): 488 ± 74 MFI | GFP-Positive (%) ([5]; Clone 8.4): 77 ± 6% | GFP Signal (MFI) ([5]; Clone 9.2): 522 ± 61 MFI | GFP-Positive (%) ([5]; Clone 9.2): 75 ± 7% | GFP Signal (MFI) ([5]; Clone 10.6): 645 ± 45 MFI | GFP-Positive (%) ([5]; Clone 10.6): 96 ± 1% | GFP Signal (MFI) ([5]; Clone 15.4): 188 ± 34 MFI | GFP-Positive (%) ([5]; Clone 15.4): 46 ± 6% | fraction of the cell population that became GFP positive ([5]; Jurkat infected with HIV-R7/E-/GFP, sorted GFP-negative population): 1.9% | HIV expression (fraction of GFP positive cells and mean fluorescence intensity) in individual clones ([5]; individual HIV-R7/E-/GFP clones): HIV expression was increased in all clones | ability to reactivate latent HIV expression (GFP-positive cells and mean fluorescence intensity) [1]: induced HIV expression

phytohemagglutinin [PHA]
ability to reactivate latent HIV expression (GFP-positive cells and mean fluorescence intensity) [1]: induced HIV expression

CC(/C=C/C(=O)NO)=C\[C@@H](C)C(=O)c1ccc(N(C)C)cc1 [Trichostatin A]
ability to reactivate latent HIV expression (GFP-positive cells and mean fluorescence intensity) [1]: activated expression but to a lesser extent than NT-κB activators and in only some cell lines

CC1(C)Cc2ccccc2C(NNC(=O)c2ccccn2)=N1 [Hit2]
induction of HIV expression as measured by increased GFP expression [6]: reproducibly lead to an induction of HIV expression

Nc1ncn([C@H]2C[C@H](O)[C@@H](CO)O2)c(=O)n1 [aza-dC, 5-axa-2-deoxycytidine]
ability to reactivate latent HIV expression (GFP-positive cells and mean fluorescence intensity) [1]: little effect

COc1cc(/C=N/NC(=O)c2cc(-c3ccccc3)n[nH]2)cc(OC)c1O [Hit 1]
induction of HIV expression as measured by increased GFP expression [6]: reproducibly lead to an induction of HIV expression
